The text below walks through data of patent publication US8741892B2, “Compounds” (Boehringer Ingelheim International GmbH, priority 2011, dated 2014).

The assay deals with T1, human recombinant mGluR5 (Homo sapiens, UniProt P41594).
T1 construct: expressed in transfected cells; host or cells: HEK 293
The assay is described as follows: positive modulation of mGluR5, calcium based FLIPR assay. To be noted: HEK 293 cell line expressing human recombinant mGluR5; EC50 of the modulation from peak Ca fluorescence signal after glutamate at approx. 5% basal stimulation. As for the experimental part: The positive modulation of mGluR5 is measured in a HEK 293 cell line expressing human recombinant mGluR5 and is detected with calcium based FLIPR assay. The cells are cultured with DMEM supplemented with 10% FCS, 2 μg/mL tetracycline, 100 μg/mL hygromycin and 500 μg/mL geneticin. The cell culture media is exchanged for tetracycline-free cell culture media 3-7 days before the assay. One day before the assay the cell culture medium is exchanged to DMEM without glutamine and phenol red and supplemented with 10% FCS, 100 μg/mL hygromycin and 500 μg/mL geneticin. On the assay day, the medium of the subconfluent cultures is removed and the cells are detached by addition of 2.5 ml EDTA (0.02%) per 175 cm2 culture flask for 1 minute. The cells are resuspend in Ringer solution (140 mM NaCl, 5 mM KCl, 2.5 mM CaCl2, 1.5 mM MgCl2, 5 mM Glucose, 10 mM Hepes; adjusted to pH 7.4 with NaOH), pooled and Ringer solution added to adjust the volume to 50 mL. The cell suspension is centrifuged for […] at 1500 U/min (425 g). The supernatant is removed and the cells washed a second time with 50 ml fresh Ringer solution and centrifuged again as before. The supernatant is again removed and the pellet resuspended in Ringer solution to 1,000,000 cells/ml (1×10^6 cells/mL). The cells are plated onto BD BioCoat Poly-D-Lysine 384 well plates (20.000 cells/well; 20 μl/well). The lid covered plates are then incubated until use at 37° C./10% CO2. For dye loading, 20 μl of Calcium-4 assay kit solution (prepared according to the manufacturer's description in Ringer solution) are added to the cells and the plates are incubated for […] 37° C. and then […] at room temperature.
Controls, Compound Dilution and Assay Execution:
Each assay plate contained wells with “high” and “low” controls:
Low controls 1% DMSO/ringer solution+basal glutamate activation (defined as 100% CTL).
High controls 10 μM CDPPB+basal glutamate activation (defined as 200% CTL).
Test compounds are dissolved and diluted in DMSO to 100-fold the desired concentrations. In a second step, the compounds are diluted in Ringer solution such that the compounds are 4-fold more concentrated than the desired final assay concentration. The final DMSO concentration was 1%.
20 μl of each compound solution are then transferred to the assay plate and the Ca2+ kinetic is measured to determine any intrinsic compound activity. After 5 mM incubation in the FLIPR device, the second stimulation with 20 μl of glutamate in Ringer solution (glutamate concentration adjusted to approximately 5% basal stimulation of the maximal possible glutamate effect) is added and the kinetic Ca2+ response of the wells was measured for the modulation effect.
The peak height of the Ca release related fluorescence signal (9-66) is used for the EC50. The EC50 of the modulation is calculated over a nonlinear regression with GraphPad Prism (Table 1).

T1 sequence (P41594 21-1212): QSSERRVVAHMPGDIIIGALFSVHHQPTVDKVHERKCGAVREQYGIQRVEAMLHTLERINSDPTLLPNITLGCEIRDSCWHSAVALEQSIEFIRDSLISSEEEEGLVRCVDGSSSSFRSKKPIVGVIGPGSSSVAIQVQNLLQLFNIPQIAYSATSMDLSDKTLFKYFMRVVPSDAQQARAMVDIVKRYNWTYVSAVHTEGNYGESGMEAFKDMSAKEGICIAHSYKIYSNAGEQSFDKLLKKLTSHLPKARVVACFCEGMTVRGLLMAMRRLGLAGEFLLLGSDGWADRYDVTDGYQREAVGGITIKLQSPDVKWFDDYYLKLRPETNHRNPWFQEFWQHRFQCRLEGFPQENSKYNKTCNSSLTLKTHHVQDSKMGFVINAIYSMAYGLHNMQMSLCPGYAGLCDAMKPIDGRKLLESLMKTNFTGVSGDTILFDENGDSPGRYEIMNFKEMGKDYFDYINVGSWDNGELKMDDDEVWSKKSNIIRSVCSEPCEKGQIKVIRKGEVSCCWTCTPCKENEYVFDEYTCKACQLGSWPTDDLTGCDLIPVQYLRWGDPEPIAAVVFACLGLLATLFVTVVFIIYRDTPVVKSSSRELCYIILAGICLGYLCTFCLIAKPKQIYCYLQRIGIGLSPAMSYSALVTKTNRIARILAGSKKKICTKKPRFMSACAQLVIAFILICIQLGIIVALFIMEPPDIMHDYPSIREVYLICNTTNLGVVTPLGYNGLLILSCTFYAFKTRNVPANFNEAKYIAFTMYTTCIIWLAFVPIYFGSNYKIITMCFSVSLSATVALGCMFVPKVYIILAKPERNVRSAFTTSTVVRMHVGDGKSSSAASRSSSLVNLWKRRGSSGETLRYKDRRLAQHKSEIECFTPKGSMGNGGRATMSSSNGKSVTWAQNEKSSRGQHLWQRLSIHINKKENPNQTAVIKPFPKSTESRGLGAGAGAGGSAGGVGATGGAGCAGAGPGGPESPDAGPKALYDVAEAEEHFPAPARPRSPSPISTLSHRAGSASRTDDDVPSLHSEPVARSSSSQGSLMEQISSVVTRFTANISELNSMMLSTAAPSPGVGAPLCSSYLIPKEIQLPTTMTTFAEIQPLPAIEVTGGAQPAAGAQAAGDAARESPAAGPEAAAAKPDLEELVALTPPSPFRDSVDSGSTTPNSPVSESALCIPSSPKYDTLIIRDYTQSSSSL

For `Cc1nc2c(s1)CCN(C(=O)Cn1nc(-c3ccc(F)c(C)c3)cc1-c1ccccc1)CC2` [Example 7.02.015], the EC50 (usually the midpoint of the concentration-response curve) turned out to be 15 nM. For `Cc1cc(-c2cc(-c3ccccc3)n(CC(=O)N3CCC(c4ncccn4)CC3)n2)ccc1F` [Example 7.02.016] the value was 110 nM; for `Cc1cc(-c2cc(-c3ccccc3)n(CC(=O)N3CCC(c4nnc(C(C)C)o4)CC3)n2)ccc1F` [Example 7.02.017], 68 nM. `Cc1cc(-c2cc(-c3ccccc3)n(CC(=O)N3CCC(C)(c4nnc(C(C)C)o4)CC3)n2)ccc1F` [Example 7.02.018]: the EC50 turned out to be 693 nM. `Cc1nnc(C2CCN(C(=O)Cn3nc(-c4ccc(F)c(C)c4)cc3-c3ccccc3)CC2)o1` [Example 7.02.019]: the EC50 was 36 nM.

Regarding `Cc1nc2c(s1)CN(C(=O)Cn1nc(-c3ccc(F)c(C)c3)cc1-c1ccccc1)C2` [Example 7.02.020], the 50% effective concentration (EC50) was found to be 21 nM. As to `COc1cc(C2CCN(C(=O)Cn3nc(-c4ccc(F)c(C)c4)cc3-c3ccccc3)CC2)ncn1` [Example 7.02.021], the 50% effective concentration (EC50) was determined as 55 nM. Under `COc1cc(C2=CCN(C(=O)Cn3nc(-c4ccc(F)c(C)c4)cc3-c3ccccc3)CC2)ncn1` [Example 7.02.022] stands 11 nM; under `Cc1cc(-c2cc(-c3ccccc3)n(CC(=O)N3CCc4nc(N)sc4CC3)n2)ccc1F` [Example 7.02.023], 12 nM; under `CCc1cc(-c2ccc(F)c(C)c2)nn1CC(=O)N1CCc2nc(C)sc2CC1` [Example 7.02.024], 29 nM. For `CCc1cc(-c2ccc(F)c(C)c2)nn1CC(=O)N1Cc2nc(C)sc2C1` [Example 7.02.025] the value was 148 nM; for `CCc1cc(-c2ccc(F)c(C)c2)nn1CC(=O)N1CCc2nc(N)sc2CC1` [Example 7.02.026], 83 nM; for `CCc1cc(-c2ccc(F)c(C)c2)nn1CC(=O)N1CCN(c2cccc(OC)c2)C(=O)C1` [Example 7.02.027], 58 nM. As to `CCc1cc(-c2ccc(F)cc2)nn1CC(=O)N1CCN(c2cccc(OC)c2)C(=O)C1` [Example 7.02.028], the EC50 amounted to 943 nM.

With `CCc1cc(-c2ccc(F)cc2)nn1CC(=O)N1CCc2nc(C)sc2CC1` [Example 7.02.029], the EC50 was determined as 329 nM.

Regarding `CCc1cc(-c2ccc(F)cc2)nn1CC(=O)N1CCc2nc(N)sc2CC1` [Example 7.02.030], the EC50 worked out at 1760 nM. Under `CCc1cc(-c2ccc(F)cc2)nn1CC(=O)N1Cc2nc(C)sc2C1` [Example 7.02.031] stands 1240 nM; under `CCCc1cc(-c2ccc(F)c(C)c2)nn1CC(=O)N1CCN(c2cccc(OC)c2)C(=O)C1` [Example 7.02.032], 37 nM; under `CCCc1cc(-c2ccc(F)c(C)c2)nn1CC(=O)N1CCc2nc(N)sc2CC1` [Example 7.02.033], 29 nM. For `CCCc1cc(-c2ccc(F)c(C)c2)nn1CC(=O)N1Cc2nc(C)sc2C1` [Example 7.02.034], the EC50 was determined as 42 nM. For `Cc1nc2c(s1)CCN(C(=O)Cn1nc(-c3ccc(F)c(C)c3)cc1C1CC1)CC2` [Example 7.02.035], the EC50 came to 35 nM. As for `Cc1cc(-c2cc(C3CC3)n(CC(=O)N3CCc4nc(N)sc4CC3)n2)ccc1F` [Example 7.02.036], the EC50 came to 136 nM. As for `CNc1nc2c(s1)CCN(C(=O)Cn1nc(-c3ccc(F)c(C)c3)cc1C1CC1)CC2` [Example 7.02.037], the EC50 came out at 194 nM.

As for `COc1ccc(-c2cc(C(C)C)n(CC(=O)N3CCc4nc(N)sc4CC3)n2)cc1` [Example 7.02.038], the EC50 came out at 210 nM. Regarding `COc1ccc(-c2cc(C(C)C)n(CC(=O)N3CCc4cc(OC)ccc4C3)n2)cc1` [Example 7.02.039], the EC50 was 915 nM.

Consider `COc1ccc(-c2cc(C(C)C)n(CC(=O)N3Cc4ccc(OC)cc4C3)n2)cc1` [Example 7.02.040], for which the EC50 was determined as 1700 nM. As to `COc1ccc(-c2cc(C(C)C)n(CC(=O)N3CCN(c4cccc(OC)c4)C(=O)C3)n2)cc1` [Example 7.02.041], the EC50 came to 1220 nM.

As to `COc1ccc(-c2cc(C(C)C)n(CC(=O)N3CCc4nc(N)sc4CC3)n2)cc1` [Example 7.02.042], the EC50 came out at 192 nM. As for `COc1ccc(-c2cc(C(C)C)n(CC(=O)N3CCc4nc(C)oc4C3)n2)cc1` [Example 7.02.043], the EC50 was determined as 1740 nM. Turning to `COc1ccc(-c2cc(C(C)C)n(CC(=O)N3CCc4ccc(OC)cc4CC3)n2)cc1` [Example 7.02.044], the EC50 was 735 nM. Under `COc1ccc(-c2cc(C(C)C)n(CC(=O)N3Cc4nc(C)sc4C3)n2)cc1` [Example 7.02.045] stands 1410 nM; under `COc1ccc(-c2cc(C(C)C)n(CC(=O)N3CCc4nc(N)sc4CC3)n2)cc1C` [Example 7.02.046], 881 nM. As for `COc1ccc(-c2cc(C(C)C)n(CC(=O)N3CCc4nc(C)sc4CC3)n2)cc1C` [Example 7.02.047], the EC50 is 221 nM.

With `Cc1nc2c(s1)CCN(C(=O)Cn1nc(-c3ccc(F)c(C)c3)cc1C1CCCCC1)CC2` [Example 7.02.048], the EC50 was found to be 31 nM. Under `CNc1nc2c(s1)CCN(C(=O)Cn1nc(-c3ccc(F)c(C)c3)cc1C1CCCCC1)CC2` [Example 7.02.049] stands 157 nM. As for `Cc1cc(-c2cc(C3CCCCC3)n(CC(=O)N3CCc4nc(N)sc4CC3)n2)ccc1F` [Example 7.02.050], the concentration giving a half-maximal response (EC50) came to 183 nM. Under `COc1cc(-c2cc(C(C)C)n(CC(=O)N3CCc4nc(C)sc4CC3)n2)ccc1F` [Example 7.02.051] stands 190 nM; under `COc1cccc(-c2cc(C3CCCCC3)n(CC(=O)N3CCc4nc(N)sc4CC3)n2)c1` [Example 7.02.052], 297 nM. For `COc1cccc(-c2cc(C3CCCCC3)n(CC(=O)N3CCN(c4cccc(OC)c4)C(=O)C3)n2)c1` [Example 7.02.053] the value was 552 nM; for `Cc1cc(-c2cc(C(C)C)n(CC(=O)N3CCc4nc(N)sc4CC3)n2)ccc1F` [Example 7.02.054], 186 nM; for `Cc1nc2c(s1)CCN(C(=O)Cn1nc(-c3ccc(F)c(C)c3)cc1C(C)C)CC2` [Example 7.02.055], 42 nM. For `Cc1nc2c(s1)CCN(C(=O)Cn1nc(-c3ccc(F)cn3)cc1-c1ccccc1)CC2` [Example 7.02.056] the value was 245 nM; for `Cc1nc2c(s1)CN(C(=O)Cn1nc(-c3ccc(F)cn3)cc1-c1ccccc1)C2` [Example 7.02.057], 913 nM; for `Nc1nc2c(s1)CCN(C(=O)Cn1nc(-c3ccc(F)cn3)cc1-c1ccccc1)CC2` [Example 7.02.058], 750 nM. As to `Cc1nc2c(s1)CN(C(=O)Cn1nc(-c3ccc(F)cn3)cc1-c1ccc(F)cc1)C2` [Example 7.02.059], the EC50 was 287 nM.

As to `Nc1nc2c(s1)CCN(C(=O)Cn1nc(-c3ccc(F)cn3)cc1-c1ccc(F)cc1)CC2` [Example 7.02.060], the EC50 stood at 760 nM. `Cc1nc2c(s1)CCN(C(=O)Cn1nc(-c3ccc(F)cn3)cc1-c1ccc(F)cc1)CC2` [Example 7.02.061]: the EC50 came out at 96 nM. With `COc1cc(-c2cc(C(C)C)n(CC(=O)N3CCc4nc(N)sc4CC3)n2)ccc1F` [Example 7.02.062], the EC50 was found to be 323 nM.

In the case of `O=C(Cn1nc(-c2ccccc2)cc1-c1ccccc1)N1CCN(Cc2ccccc2)C(=O)C1` [Example 7.02.063], the EC50 amounted to 1730 nM. Under `COc1cccc(N2CCN(C(=O)Cn3nc(-c4cc(C)c(C)cn4)cc3-c3ccccc3)CC2=O)c1` [Example 7.02.064] stands 177 nM; under `CCc1cccc(-c2cc(CC)n(CC(=O)N3CCN(c4cccc(OC)c4)C(=O)C3)n2)c1` [Example 7.02.065], 194 nM; under `CCc1cc(-c2ccc(F)c(C)c2)nn1CC(=O)N1CCc2nc(C)oc2CC1` [Example 7.02.066], 24 nM.

Consider `CCCc1cc(-c2ccc(F)c(C)c2)nn1CC(=O)N1CCc2nc(C)sc2CC1` [Example 7.02.067], for which the half-maximal effective concentration (EC50) is 6 nM.

In the case of `CCCc1cc(-c2ccc(F)c(C)c2)nn1CC(=O)N1CCC(c2cc(OC)ncn2)CC1` [Example 7.02.068], the EC50 came out at 199 nM. For `CCCc1cc(-c2ccc(F)c(C)c2)nn1CC(=O)N1CCC(c2ncc(OC)cn2)CC1` [Example 7.02.069] the value was 187 nM.
